Test results: US20030206898A1, “Use of anti-TNFalpha antibodies and another drug” (priority 2002, published 2003)
Several values for one entry are separate records, joined by “and”; a condition that tells them apart may be missing. Equal entries are not always repeated. Entries after “also recorded” stand apart in the source; their conditions may differ.

Assays:
[1] = test system: patients with rheumatoid arthritis (RA); experiment: Same RA study: safety / adverse events; format: in vivo, human
Experimental: A study was designed and conducted to investigate the safety and efficacy of D2E7 40 mg administered every other week to patients with RA whose disease was not adequately treated with their current anti-rheumatic therapies (including accepted DMARDs, NSAIDs, or steroids); and was a multicenter, randomized, double-blind, placebo-controlled study in which D2E7 was subcutaneously (sc) administered every other week for up to 24 weeks at a dosage of 40 mg to patients with rheumatoid arthritis (RA) whose disease was not adequately treated with their current anti-rheumatic therapies. Anti-rheumatic therapies permitted for use during the study included accepted disease-modifying anti-rheumatic drugs (DMARDs), non-steroidal anti-inflammatory drugs (NSAIDs), or steroids. Despite using anti-rheumatic therapies, patients must have had active disease documented at both the screening and baseline visits. Doses of DMARDs, as well as concomitant prednisone (<10 mg daily) and NSAIDs, were required to be stable for at least 28 days prior to screening. […]
Adverse events were summarized by frequency, percentage, as well as the rate per 100 patient-years. […] All other efficacy variables were summarized descriptively (statistical characteristics, frequencies, percentages, confidence intervals) and analyzed by exploratory two-sided statistical tests. […]

[2] = test system: patients with rheumatoid arthritis (RA); experiment: Multicenter, randomized, double-blind, placebo-controlled study of D2E7 40 mg sc every other week added to current anti-rheumatic therapies: efficacy (ACR response); format: in vivo, human
Experimental: A study was designed and conducted to investigate the safety and efficacy of D2E7 40 mg administered every other week to patients with RA whose disease was not adequately treated with their current anti-rheumatic therapies (including accepted DMARDs, NSAIDs, or steroids); and was a multicenter, randomized, double-blind, placebo-controlled study in which D2E7 was subcutaneously (sc) administered every other week for up to 24 weeks at a dosage of 40 mg to patients with rheumatoid arthritis (RA) whose disease was not adequately treated with their current anti-rheumatic therapies. Anti-rheumatic therapies permitted for use during the study included accepted disease-modifying anti-rheumatic drugs (DMARDs), non-steroidal anti-inflammatory drugs (NSAIDs), or steroids. Despite using anti-rheumatic therapies, patients must have had active disease documented at both the screening and baseline visits. Doses of DMARDs, as well as concomitant prednisone (<10 mg daily) and NSAIDs, were required to be stable for at least 28 days prior to screening. Additionally, patients using azathioprine and/or cyclosporine discontinued these therapies and underwent a 28-day washout period before screening. At the baseline visit, patients were randomized to D2E7 or placebo and this signified the start of the 24-week placebo-controlled period. Patients were examined at Weeks 2, 4, 8, 12, 16, 20 and 24 of the study.
Patients were inadequately treated with their current anti-rheumatic therapies and had active RA, defined as ≧6 swollen joints and ≧9 tender joints. Additionally, patients using glucocorticoids were allowed into the study if the dose was equivalent to <10 mg/day prednisone and had remained unchanged for at least 28 days.
D2E7 was supplied in 2-mL glass vials (the concentration of D2E7 in each vial was 25 mg/mL (ie, 40 mg/1.6 mL)), each containing 40 mg D2E7/1.6 mL solution for injection. D2E7 was manufactured and supplied by Ebewe Arzneimittel GmbH, in Unterach, Austria. McKesson, HBOC Biosciences, in Rockville, Md., USA, packaged, labeled, stored and distributed D2E7 to the investigators at each site for this study. D2E7 was self-administered as a single sc injection of 40 mg every other week for a period of 24 weeks. The concentration of study drug was 25 mg/mL. Placebo/1.6 mL (citrate-phosphate buffer solution without D2E7) was self-administered as a single sc injection every other week for a period of 24 weeks.
Patients continued to receive their pre-study dose of anti-rheumatic therapies. Anti-rheumatic therapies permitted for use during the study included DMARDs (hydroxychloroquine, leflunomide, methotrexate, parenteral gold, oral gold and sulfasalazine, or any combination of these or other DMARDs), NSAIDs and steroids. Doses of these DMARDs as well as concomitant prednisone (<10 mg daily) and NSAIDs must have been stable for at least 28 days prior to screening.
Efficacy endpoints included: ACR20 response at Week 24; ACR50 and ACR70 at Week 24; AUC (area under the curve) of ACR20, ACR50 and ACR70 from baseline to Week 24; time to first response for ACR20, ACR50 and ACR70; numeric ACR (ACR—N); change from baseline to Week 24 in components of the ACR response criteria (tender joint count [TJC], swollen joint count [SJC], patient assessment of pain, patient and physician global assessments of disease activity, HAQ and C-reactive protein [CRP]); change from baseline to Week 24 in physical function as measured by SF-36, health utilities index (HUI), functional assessment of chronic illness therapy (FACIT) fatigue scale; Euro-QoL questionnaire; multidimensional assessment of fatigue (MAF) scale; subject summary survey; incidence and time to dose increases in background DMARD and/or steroid therapy; institution of new DMARD therapy for lack of clinical response; rheumatoid factor (RF); and morning stiffness.
Adverse events were summarized by frequency, percentage, as well as the rate per 100 patient-years. […]

[3] = Week 2, full analysis set, excluding Site #7
[4] = Week 4, full analysis set, excluding Site #7
[5] = Week 8, full analysis set, excluding Site #7
[6] = Week 12, full analysis set, excluding Site #7
[7] = Week 16, full analysis set, excluding Site #7
[8] = Week 20, full analysis set, excluding Site #7
[9] = Week 24, full analysis set, excluding Site #7
[10] = Week 24, subgroup Three or more DMARDs
[11] = Week 24, subgroup concomitant Antimalarial
[12] = Week 24, subgroup concomitant Leflunomide
[13] = Week 24, subgroup concomitant Methotrexate
[14] = Week 24, subgroup concomitant Sulfasalazine
[15] = through Week 24, full analysis set, excluding Site #7

D2E7: recombinant, neutralizing human anti-hTNFα antibody; VL region SEQ ID NO: 1, VH region SEQ ID NO: 2
Tolerability when added to existing DMARD therapies ([1]; 40 mg sc every other week, up to 24 weeks): generally well-tolerated | Safety alone or in combination with other DMARDs ([1]; dose of 40 mg): safe | ACR50 response, patients responding ([2]; LOCF Week 24, N = 315): 95 (30.2) N (%) | ACR70 response, patients responding ([2]; LOCF Week 24, N = 315): 48 (15.2) N (%) | ACR-N, Mean ± SD ([2]; LOCF Week 24, N = 315): 21.2 ± 55.3 | Time to response ACR20: patients responding for the first time [2, 3]: 106 (33.7) N (%) | Time to response ACR50: patients responding for the first time [2, 3]: 31 (9.8) N (%) | Time to response ACR70: patients responding for the first time [2, 3]: 9 (2.9) N (%) | Time to response ACR20: patients responding for the first time [2, 4]: 51 (16.2) N (%) | Time to response ACR50: patients responding for the first time [2, 4]: 31 (9.8) N (%) | Time to response ACR70: patients responding for the first time [2, 4]: 12 (3.8) N (%) | Time to response ACR20: patients responding for the first time [2, 5]: 52 (16.5) N (%) | Time to response ACR50: patients responding for the first time [2, 5]: 34 (10.8) N (%) | Time to response ACR70: patients responding for the first time [2, 5]: 12 (3.8) N (%) | Time to response ACR20: patients responding for the first time [2, 6]: 17 (5.4) N (%) | Time to response ACR50: patients responding for the first time [2, 6]: 20 (6.3) N (%) | Time to response ACR70: patients responding for the first time [2, 6]: 18 (5.7) N (%) | Time to response ACR20: patients responding for the first time [2, 7]: 13 (4.1) N (%) | Time to response ACR50: patients responding for the first time [2, 7]: 20 (6.3) N (%) | Time to response ACR70: patients responding for the first time [2, 7]: 18 (5.7) N (%) | Time to response ACR20: patients responding for the first time [2, 8]: 12 (3.8) N (%) | Time to response ACR50: patients responding for the first time [2, 8]: 9 (2.9) N (%) | Time to response ACR70: patients responding for the first time [2, 8]: 7 (2.2) N (%) | ACR20 response, patients responding ([2]; Week 24, 40 mg sc every other week, N = 315): 167 (53.0) N (%) | ACR20 response (primary efficacy endpoint) ([2]; Week 24, D2E7 added to current anti-rheumatic therapies): 53.0% | ACR50 response, patients responding ([2]; Week 24, N = 315): 92 (29.2) N (%) and 92 (29.2)^a N (%) | ACR70 response, patients responding ([2]; Week 24, N = 315): 47 (14.9) N (%) and 47 (14.9)^a N (%) | ACR-N, Mean ± SD ([2]; Week 24, N = 315): 20.3 ± 55.2 | Time to response ACR20: patients responding for the first time [2, 9]: 3 (1.0) N (%) | Time to response ACR50: patients responding for the first time [2, 9]: 10 (3.2) N (%) | Time to response ACR70: patients responding for the first time [2, 9]: 8 (2.5) N (%) | ACR20 % Response ([2]; Week 24, subgroup No DMARD): 50.0% | ACR50 response ([2]; Week 24, subgroup No DMARD): 27.8% | ACR70 response ([2]; Week 24, subgroup No DMARD): 18.5% | ACR-N, Mean ± SD ([2]; Week 24, subgroup No DMARD): 12.8 ± 68.2 | ACR20 % Response ([2]; Week 24, subgroup One DMARD): 55.4% | ACR50 response ([2]; Week 24, subgroup One DMARD): 31.0% | ACR70 response ([2]; Week 24, subgroup One DMARD): 16.3% | ACR-N, Mean ± SD ([2]; Week 24, subgroup One DMARD): 22.8 ± 56.0 | ACR20 % Response ([2]; Week 24, subgroup Other DMARDs): 52.0% | ACR50 response ([2]; Week 24, subgroup Other DMARDs): 24.0% | ACR70 response ([2]; Week 24, subgroup Other DMARDs): 16.0% | ACR-N, Mean ± SD ([2]; Week 24, subgroup Other DMARDs): 25.3 ± 33.9 | ACR20 % Response [2, 10]: 45.5% | ACR50 response [2, 10]: 18.2% | ACR70 response [2, 10]: 9.1% | ACR-N, Mean ± SD [2, 10]: 20.1 ± 37.2 | ACR20 % Response ([2]; Week 24, subgroup Two DMARDs): 50.0% | ACR50 response ([2]; Week 24, subgroup Two DMARDs): 27.3% | ACR70 response ([2]; Week 24, subgroup Two DMARDs): 9.1% | ACR-N, Mean ± SD ([2]; Week 24, subgroup Two DMARDs): 19.5 ± 42.3 | ACR20 % Response [2, 11]: 50.7% | ACR50 response [2, 11]: 29.3% | ACR70 response [2, 11]: 12.0% | ACR-N, Mean ± SD [2, 11]: 20.0 ± 45.5 | ACR20 % Response [2, 12]: 33.3% | ACR50 response [2, 12]: 14.3% | ACR70 response [2, 12]: 0.0% | ACR-N, Mean ± SD [2, 12]: −0.5 ± 77.5 | ACR20 % Response [2, 13]: 56.7% | ACR50 response [2, 13]: 30.9% | ACR70 response [2, 13]: 15.2% | ACR-N, Mean ± SD [2, 13]: 26.5 ± 42.3 | ACR20 % Response [2, 14]: 58.6% | ACR50 response [2, 14]: 34.5% | ACR70 response [2, 14]: 17.2% | ACR-N, Mean ± SD [2, 14]: 21.4 ± 53.9 | Subgroup analyses of ACR20, ACR50, ACR70, ACR-N and their AUC ([2]; concomitant methotrexate, antimalarials, sulfasalazine, other DMARDs, or 0, 1, 2, ≧3 DMARDs, vs placebo): greater improvement; also recorded: higher response compared to placebo | Improvement in RA in patients inadequately treated with existing DMARD therapies ([2]; in vivo): significant improvement | Time to response ACR20: Non-responder [2, 15]: 61 (19.4) N (%) | Time to response ACR50: Non-responder [2, 15]: 160 (50.8) N (%) | Time to response ACR70: Non-responder [2, 15]: 231 (73.3) N (%) | Time to response and AUC for ACR20, ACR50, ACR70; AUC for ACR-N; Euro-QoL, RF, MAF scale ([2]; vs placebo): improvement in therapeutic response over placebo
